How the values were obtained:
[1] = target: T1, recombinant Leishmania donovani Trypanothione Reductase (LDdTR) (Leishmania donovani, UniProt P39050, S2A); assay: biochemical
T1 construct: GST (pET-41a vector fusion) (N, cleaved yes); made in house; host or cells: E. coli BL21(DE3), pET41a (clone LddTRpET41aDE3)
Procedure: Trypanothione reductase activity was routinely assayed spectrophotometrically at 340 nm, as previously described (25). The reaction mixture contained 100 mM HEPES pH 7.8, 20 μM EDTA, 80 μM NADPH and 50 μM TS2. The reaction was allowed to proceed for 5 min. and change in O.D. was monitored every after 30 sec. One unit of enzyme activity is defined, as that amount of enzyme required to convert 1 μmol of NADPH to NADP per minute at 25° C. […] For comparative kinetic studies, assay was performed at 50 μM NADPH and varying concentration of TS2 (20, 40, 60, 80 & 100) and at 50 μM TS2 and varying concentration of NADPH (20, 40, 60, 80, 100 & 150).

[2] = target: T2, recombinant Leishmania donovani Trypanothione Reductase (Leishmania donovani, UniProt P39050, S2A); assay: Enzyme assay, kinetics and substrate specificity of recombinant purified trypanothione reductase; assay type: biochemical; conditions: for Km / Vmax: TS2 varied at 50 μM NADPH, NADPH varied at 50 μM TS2
T2 construct: GST (pET-41a vector fusion) (N, cleaved yes); made in house; host or cells: E. coli BL21(DE3), pET41a (clone LddTRpET41aDE3)
Procedure: Trypanothione reductase activity was routinely assayed spectrophotometrically at 340 nm, as previously described (25). The reaction mixture contained 20-100 mM HEPES pH 7.2-7.8, 20 μM-1 mM EDTA, 80-200 μM NADPH and 15-50 μM TS2. One unit of enzyme activity is defined as that amount of enzyme required to convert 1 μmol of NADPH to NADP per minute at 25° C. Protein was assayed according to the method of Bradford (1976) as supplied by Bangalore Genei with Bovine serum albumin as a standard. For comparative kinetic studies, assay was performed at 50 μM NADPH and at 5-100 μM concentrations of TS2 and at 50 μM TS2 and at 10-200 μM concentrations of NADPH.
Trypanothione reductase activity was routinely assayed spectrophotometrically at 340 nm, as previously described (25). The reaction mixture contained 100 mM HEPES pH 7.8, 20 μM EDTA, 80 μM NADPH and 50 μM TS2. The reaction was allowed to proceed for 5 min. and change in O.D. was monitored every after 30 sec. One unit of enzyme activity is defined, as that amount of enzyme required to convert 1 μmol of NADPH to NADP per minute at 25° C. The purified recombinant enzyme has a specific activity of 12.5 U/mg. protein. Purification procedure leads to 20 fold purification from the soluble content of E. coli lysate. The total yield was 16 mg/lit (FIG. 7 describes the fold purification of Recombinant Leishmania donovani Trypanothione Reductase). […] For comparative kinetic studies, assay was performed at 50 μM NADPH and varying concentration of TS2 (20, 40, 60, 80 & 100) and at 50 μM TS2 and varying concentration of NADPH (20, 40, 60, 80, 100 & 150).

Row | Compound | Substrate specificity (reduction catalyzed by purified protein) [2] | Km [2] [µM] | Vmax [2] [μM/ml/min] | also measured
1 | Nc1nc(N)nc(Nc2ccc([As]=O)cc2)n1 (centres unmarked) [Melarsen Oxide, Melarsen oxide] |  |  |  | inhibition at 50 µM ([1]; read-out: Inhibition of TR): > 95%
2 | Oxidised Glutathione [oxidized glutathione] | did not catalyze reduction |  |  | 
3 | NC(=O)C1=CN([C@@H]2O[C@H](COP(=O)(O)OP(=O)(O)OC[C@H]3O[C@@H](n4cnc5c(N)ncnc54)[C@H](OP(=O)(O)O)[C@@H]3O)[C@@H](O)[C@H]2O)C=CC1 [NADPH, Nicotinidine adenine dinucleotide phosphate] |  | 20 | 125 | 
4 | O.O.O.O=C([O-])[C@H]([O-])[C@@H]([O-])C(=O)[O-].O=C([O-])[C@H]([O-])[C@@H]([O-])C(=O)[O-].[K+].[K+].[Sb+3].[Sb+3] [SbIII, Potassium antimony tartrate] |  |  |  | Effect on TR activity (in words) ([1]; studied at 50 and 100 μM concentration): profound effect on TR activity in comparison to SAG
5 | N[C@@H](CCC(=O)N[C@H]1CSSC[C@H](NC(=O)CC[C@H](N)C(=O)O)C(=O)NCC(=O)NCCCNCCCCNC(=O)CNC1=O)C(=O)O [TS2, Oxidized Trypanothione] | specifically catalyzed reduction | 50 | 200 | 
